Measurements: paper PMC3641313 (Korean Journal of Pediatrics, 2013)
Entries after “also recorded” stand apart in the source; their conditions may differ. Where two headings read alike, the source gives them in different places.

Tested on: viral NA of influenza A/H1N1
Format: biochemical, influenza A/H1N1 virus

`CC(=O)N[C@H]1[C@H]([C@H](O)[C@H](O)CO)OC(C(=O)O)=C[C@@H]1N=C(N)N` [Zanamivir] was tested, and the “resistance of influenza A/H1N1 isolates” value was “no zanamivir resistance” and the “sensitivity or resistance of isolates by IC50 criteria” value (shortened to “sensitivity or resistance of isolates”) was “sensitivity; also recorded: sensitive”.

For `CCOC(=O)C1=C[C@@H](OC(CC)CC)[C@H](NC(C)=O)[C@@H](N)C1` [Oseltamivir], the “sensitivity or resistance of isolates” value (A/H1N1, first study period, both groups, […]) was “sensitivity” and the “sensitivity or resistance of isolates” value (A/H1N1, second study period, both groups, […]) was “high-level drug resistance”.
